# Assay results published in PMC6364417, “Kinase inhibitor library screening identifies synergistic drug combinations effective in sensitive and resistant melanoma cells” (Journal of Experimental & Clinical Cancer Research : CR, 2019).
# What was measured:
# Experiment in all cases: Kinase inhibitor library screening, PrestoBlue cell viability, 1 or 10 μM, 72 h
# [1] = tested on: 501Mel-XP cells (Vemurafenib-resistant); conditions: 501Mel XP, 72 h
# [2] = tested on: IGR37-GP cells (Dabrafenib-resistant); conditions: IGR37 GP, 72 h
# [3] = tested on: 501Mel-GP cells (Dabrafenib-resistant); conditions: 501Mel GP, 72 h
# IGR37 cells (parental) = conditions: IGR37 Parental, 72 h
# 501Mel cells (parental) = conditions: 501Mel Parental, 72 h
# How it was run: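 Single-point screen at two doses over three days. Parental and BRAF-inhibitor-resistant sublines (XP: Vemurafenib; GP: Dabrafenib) were assessed by PrestoBlue viability, reported relative to untreated cells.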
# [4] = tested on: A375-GP cells (Dabrafenib-resistant); conditions: A375 GP, 72 h
# A375 cells (parental) = conditions: A375 Parental, 72 h
# [5] = tested on: IGR37-XP cells (Vemurafenib-resistant); conditions: IGR37 XP, 72 h
# [6] = tested on: A375-XP cells (Vemurafenib-resistant); conditions: A375 XP, 72 h
Compound,"Cell viability in kinase inhibitor library screening, 501Mel XP, 1μΜ ([1]; 1μΜ, in %)","Cell viability in kinase inhibitor library screening, 501Mel XP, 10μΜ ([1]; 10μΜ, in %)","Cell viability in kinase inhibitor library screening, IGR37 GP, 10μΜ ([2]; 10μΜ)","Cell viability in kinase inhibitor library screening, IGR37 GP, 1μΜ ([2]; 1μΜ, in %)","Cell viability in kinase inhibitor library screening, 501Mel GP, 1μΜ ([3]; 1μΜ, in %)","Cell viability in kinase inhibitor library screening, 501Mel GP, 10μΜ ([3]; 10μΜ, in %)","Cell viability in kinase inhibitor library screening, IGR37 Parental, 1μΜ (IGR37 cells (parental); 1μΜ, in %)","Cell viability in kinase inhibitor library screening, IGR37 Parental, 10μΜ (IGR37 cells (parental); 10μΜ, in %)","Cell viability in kinase inhibitor library screening, 501Mel Parental, 1μΜ (501Mel cells (parental); 1μΜ, in %)","Cell viability in kinase inhibitor library screening, 501Mel Parental, 10μΜ (501Mel cells (parental); 10μΜ, in %)","Cell viability in kinase inhibitor library screening, A375 GP, 1μΜ ([4]; 1μΜ)","Cell viability in kinase inhibitor library screening, A375 GP, 10μΜ ([4]; 10μΜ)","Cell viability in kinase inhibitor library screening, A375 Parental, 10μΜ (A375 cells (parental); 10μΜ)","Cell viability in kinase inhibitor library screening, A375 Parental, 1μΜ (A375 cells (parental); 1μΜ)","Cell viability in kinase inhibitor library screening, IGR37 XP, 10μΜ ([5]; 10μΜ)","Cell viability in kinase inhibitor library screening, IGR37 XP, 1μΜ ([5]; 1μΜ, in %)","Cell viability in kinase inhibitor library screening, A375 XP, 1μΜ ([6]; 1μΜ)","Cell viability in kinase inhibitor library screening, A375 XP, 10μΜ ([6]; 10μΜ)",cell viability (kinase inhibitor library screening) ([1]; 1μΜ),cell viability (kinase inhibitor library screening) ([1]; 10μΜ),also measured
CO[C@H]1C[C@@H]2CC[C@@H](C)[C@@](O)(O2)C(=O)C(=O)N2CCCC[C@H]2C(=O)O[C@H]([C@H](C)C[C@@H]2CC[C@@H](OP(C)(C)=O)[C@H](OC)C2)CC(=O)[C@H](C)/C=C(\C)[C@@H](O)[C@@H](OC)C(=O)[C@H](C)C[C@H](C)/C=C/C=C/C=C/1C [Deforolimus (Ridaforolimus)],54.3,40.7,76.8%,90.2,66.5,55.6,82.2,86.0,84.8,82.7,79.3,72.3,73.5,82.1,56.1%,95.0,79.9,76.9,,,
Cc1ncc(-c2ccnc(Nc3ccc(S(C)(=O)=O)cc3)n2)n1C(C)C [AZD5438],,,,,,,,,,,,,,,,,,,99.0%,80.3%,cell viability (kinase inhibitor library screening) ([2]; 1μΜ): 99.3%; cell viability (kinase inhibitor library screening) ([2]; 10μΜ): 97.8%; cell viability (kinase inhibitor library screening) ([3]; 1μΜ): 106.0%; cell viability (kinase inhibitor library screening) ([3]; 10μΜ): 93.9%; cell viability (kinase inhibitor library screening) (IGR37 cells (parental); 1μΜ): 103.3%; cell viability (kinase inhibitor library screening) (IGR37 cells (parental); 10μΜ): 110.8%; cell viability (kinase inhibitor library screening) (501Mel cells (parental); 1μΜ): 102.8%; cell viability (kinase inhibitor library screening) (501Mel cells (parental); 10μΜ): 103.6%; cell viability (kinase inhibitor library screening) ([4]; 1μΜ): 99.9%; cell viability (kinase inhibitor library screening) ([4]; 10μΜ): 102.9%; cell viability (kinase inhibitor library screening) (A375 cells (parental); 10μΜ): 103.7%; cell viability (kinase inhibitor library screening) (A375 cells (parental); 1μΜ): 106.4%; cell viability (kinase inhibitor library screening) ([5]; 1μΜ): 106.4%; cell viability (kinase inhibitor library screening) ([5]; 10μΜ): 82.4%; cell viability (kinase inhibitor library screening) ([6]; 1μΜ): 105.8%; cell viability (kinase inhibitor library screening) ([6]; 10μΜ): 110.3%
O=C1NC(=O)/C(=C/c2ccc3nccc(-c4ccncc4)c3c2)S1 [GSK1059615],43.3,0.262,6.4%,75.2,45.2,1.5,82.5,4.7,65.3,1.4,59.6,4.2,4.4,62.0,2.2%,58.7,54.8,3.7,,,
CNC(=O)c1cccc(-c2ccc3c(N4CCOC[C@@H]4C)nc(N4CCOC[C@@H]4C)nc3n2)c1 [AZD2014],21.8,3.5,28.2%,63.5,28.3,9.6,,12.3,39.4,8.5,33.7,19.6,21.1,34.9,9.4%,49.7,29.1,19.4,,,
COc1cc2ncnc(Nc3ccc(O)c(Br)c3)c2cc1OC [WHI-P154],,,,,,,,,,,,,,,,,,,,,"cell viability, 501Mel XP, 1μΜ ([1]; 1μΜ, in %): 89.8; cell viability, 501Mel XP, 10μΜ ([1]; 10μΜ, in %): 63.6; cell viability, IGR37 GP, 10μΜ ([2]; 10μΜ): 72.3%; cell viability, IGR37 GP, 1μΜ ([2]; 1μΜ, in %): 94.4; cell viability, 501Mel GP, 1μΜ ([3]; 1μΜ, in %): 99.5; cell viability, 501Mel GP, 10μΜ ([3]; 10μΜ, in %): 77.2; cell viability, IGR37 Parental, 1μΜ (IGR37 cells (parental); 1μΜ, in %): 97.1; cell viability, IGR37 Parental, 10μΜ (IGR37 cells (parental); 10μΜ, in %): 93.0; cell viability, 501Mel Parental, 1μΜ (501Mel cells (parental); 1μΜ, in %): 97.4; cell viability, 501Mel Parental, 10μΜ (501Mel cells (parental); 10μΜ, in %): 93.8; cell viability, A375 GP, 1μΜ ([4]; 1μΜ, in %): 96.6; cell viability, A375 GP, 10μΜ ([4]; 10μΜ, in %): 85.7; cell viability, A375 Parental, 1μΜ (A375 cells (parental); 1μΜ, in %): 98.9; cell viability, A375 Parental, 10μΜ (A375 cells (parental); 10μΜ, in %): 86.7; cell viability, IGR37 XP, 10μΜ ([5]; 10μΜ): 36.2%; cell viability, IGR37 XP, 1μΜ ([5]; 1μΜ, in %): 91.6; cell viability, A375 XP, 1μΜ ([6]; 1μΜ, in %): 105.6; cell viability, A375 XP, 10μΜ ([6]; 10μΜ, in %): 90.7"
O=C(Nc1cccc(Cl)c1)Nc1ncc(CCNc2ncnc3ccsc23)s1 [SNS-314],,,,,,,,,,,,,,,,,,,72.3%,46.6%,cell viability (kinase inhibitor library screening) ([2]; 1μΜ): 93.6%; cell viability (kinase inhibitor library screening) ([2]; 10μΜ): 58.8%; cell viability (kinase inhibitor library screening) ([3]; 1μΜ): 79.1%; cell viability (kinase inhibitor library screening) ([3]; 10μΜ): 58.4%; cell viability (kinase inhibitor library screening) (IGR37 cells (parental); 1μΜ): 81.9%; cell viability (kinase inhibitor library screening) (IGR37 cells (parental); 10μΜ): 57.7%; cell viability (kinase inhibitor library screening) (501Mel cells (parental); 1μΜ): 79.7%; cell viability (kinase inhibitor library screening) (501Mel cells (parental); 10μΜ): 75.7%; cell viability (kinase inhibitor library screening) ([4]; 1μΜ): 47.1%; cell viability (kinase inhibitor library screening) ([4]; 10μΜ): 46.9%; cell viability (kinase inhibitor library screening) (A375 cells (parental); 10μΜ): 46.0%; cell viability (kinase inhibitor library screening) (A375 cells (parental); 1μΜ): 47.7%; cell viability (kinase inhibitor library screening) ([5]; 1μΜ): 88.3%; cell viability (kinase inhibitor library screening) ([5]; 10μΜ): 20.8%; cell viability (kinase inhibitor library screening) ([6]; 1μΜ): 56.7%; cell viability (kinase inhibitor library screening) ([6]; 10μΜ): 55.3%
